Assay results as given in US20250152758A1, “PROBE FOR NUCLEAR MEDICAL TESTING” (The University of Tokyo, priority 2022, published 2025).

Legend:
[1] = system: SHIN3 (high GGT activity) cells; experiment: Intracellular uptake test in cells with high GGT activity, with or without GGT inhibitor GGsTop; type: cell-based
Procedure: (§1) Intracellular uptake of gGlu-4^125I-FMA was evaluated using cells with high or low GGT activity and a GGT inhibitor, GGsTop, by the procedure shown in FIG. 4.
(§2) First, SHIN3 (high GGT activity) and SKOV3 (low GGT activity) cells were seeded in 12 well culture plates and incubated for 1 day. Next, the medium of each well was changed to fresh medium containing gGlu-4^125I-FMA (and GGsTop), and the cells were incubated for 6 hours. Thereafter, the medium was removed and the plates were washed three times with PBS(-). Then, the cells were collected, radioactivity from the cells was measured with a Y-counter, and the number of cells was counted.
(§3) Since there was almost no radioactivity in the third wash fraction and the radioactivity from the cell fraction was much higher than that, it is considered that the radioactivity from the cell fraction is derived from the nuclide retained in the cell.

[2] = system: A549-luc-C8 cells with high GGT activity (peritoneal dissemination); experiment: Visualization of peritoneal metastasis by intraperitoneal administration, SPECT/CT and autoradiography; type: in vivo, mouse; conditions: for signals in the abdomen (SPECT/CT): 5 hours after administration
Procedure: Next, according to the procedure shown in the left figure of FIG. 7, peritoneal dissemination model mice were prepared, and gGlu-4^125I-FMA was intraperitoneally administered. First, A549-luc-C8 cells with high GGT activity were transplanted into the abdominal cavity of the mouse and bred for 1 week. Luciferin potassium was intraperitoneally administered, and tumor growth was confirmed by luminescence imaging using IVIS (right figure in FIG. 7). Next, gGlu-4^125I-FMA was intraperitoneally administered (to 3 MBq) to the peritoneal model mouse and a tumor-free mouse, and SPECT/CT imaging was performed by NanoSPECT/CT. […] They are shown as Maximum Intensity Projection (MIP) images.
In addition, the peritoneal dissemination model mouse in the left figure was dissected after 5 hours of imaging, and the intestines and mesentery were taken out and imaged by autoradiography (ARG) (FIG. 9). […] From this, it is considered that the signals scattered in the abdominal cavity in the SPECT/CT on the left of FIG. 8 correspond to the peritoneal dissemination.

[3] = system: A549 tumor (high GGT activity); experiment: Intratumoral administration to subcutaneous tumor model mouse, SPECT/CT imaging (high GGT tumor); type: in vivo; conditions: about 150 kBq intratumoral, images 30 minutes, 2 hours, 5 hours
Procedure: (§4) On the basis of the results of Example 2, a probe was intratumorally administered to a subcutaneous tumor model mouse, and SPECT/CT imaging was performed.
(§5) A model mouse was prepared in which A549 cells with high GGT activity were transplanted subcutaneously on the left side of the body, and H226 cells with low GGT activity were transplanted subcutaneously on the right side of the body. Into subcutaneous tumors of A549 (high GGT activity, left side) and H226 (low GGT activity, right side), gGlu-4^125I-FMA of about 150 kBq in 30 μL PBS(-) was directly administered. SPECT/CT images were acquired 30 minutes, 2 hours, and 5 hours after administration.

[4] = target: T1, GGT (Homo sapiens, UniProt P19440); experiment: Enzymatic reaction between gGlu-4^125I-FMA and GGT, HPLC with radiation detector; type: biochemical; conditions: 80 U/mL GGT, 37° C., 3.5 hours, radio-HPLC
T1 construct: purchased wako 307-50673
Procedure: The purified gGlu-4^125I-FMA was dissolved in DPBS(-) to prepare about 5 kBq/μL. The result of the radiation detector when 20 μL of DPBS(-) was added to 5 μL of this solution and the entire amount of 25 μL was injected into the analytical HPLC is shown in the upper left of FIG. 3. Here, the analysis conditions of HPLC are exactly the same as the conditions at the time of purification in FIG. 2.
For analysis of metabolites, 40 μL of a 100 U/mL GGT solution (final concentration: 80 U/mL) was added to 10 μL of the above gGlu-4^125I-FMA solution, and the mixture was stirred at 37° C. and 500 rpm for 3.5 hours using a shaker. The result of the radiation detector when a half amount 25 μL from this reaction liquid was injected for analysis is shown in the upper left of FIG. 3. The lower right is a result of extracting 254 nm with PDA when a cold preparation of 2-amino-5-iodobenzylalcohol obtained by producing azaquinone methide after gGlu-4^125I-FMA was metabolized by GGT, and reacting azaquinone methide with water that would be the main nucleophile in this enzymatic reaction experiment was analyzed under the same analysis conditions.

[5] = system: H226 tumor (low GGT activity); experiment: Intratumoral administration to subcutaneous tumor model mouse, SPECT/CT imaging (low GGT tumor); type: in vivo; conditions: about 150 kBq intratumoral, images 30 minutes, 2 hours, 5 hours
Procedure: as §4, §5

[6] = system: SKOV3 (low GGT activity) cells; experiment: Intracellular uptake test in cells with low GGT activity; type: cell-based; conditions: SKOV3, 6 hours incubation, gamma counter
Procedure: as §1, §2, §3

T1 sequence (P19440 whole entry, species assumed): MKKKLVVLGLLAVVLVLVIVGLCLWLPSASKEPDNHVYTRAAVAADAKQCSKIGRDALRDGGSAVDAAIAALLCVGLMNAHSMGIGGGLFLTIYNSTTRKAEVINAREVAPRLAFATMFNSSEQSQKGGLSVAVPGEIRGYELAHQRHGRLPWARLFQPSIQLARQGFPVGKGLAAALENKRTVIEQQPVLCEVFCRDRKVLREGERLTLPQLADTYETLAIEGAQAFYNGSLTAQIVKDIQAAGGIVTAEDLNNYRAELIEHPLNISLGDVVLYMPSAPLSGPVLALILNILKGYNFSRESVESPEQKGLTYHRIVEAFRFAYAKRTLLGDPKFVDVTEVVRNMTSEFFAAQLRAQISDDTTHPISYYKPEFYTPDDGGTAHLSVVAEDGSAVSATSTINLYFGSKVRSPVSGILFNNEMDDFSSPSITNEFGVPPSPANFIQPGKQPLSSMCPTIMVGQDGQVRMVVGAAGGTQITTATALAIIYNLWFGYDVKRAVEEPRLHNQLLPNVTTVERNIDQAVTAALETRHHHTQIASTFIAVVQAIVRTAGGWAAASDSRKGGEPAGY

`N[C@@H](CCC(=O)Nc1ccc([125I])cc1CF)C(=O)O` [gGlu-4^125I-FMA] was tested, and the “uptake rate without inhibitor compared with the case of adding an inhibitor” value ([1]; SHIN3, 6 hours incubation, GGsTop as inhibitor, gamma counter, standardized by number of cells) was “about 30 times”, the “retention of incorporated probe in the cell after wash operation” value ([1]; three washes with PBS(-)) was “remains in the cell at a certain ratio and withstands washout” and the “clearance of probe from abdominal cavity (SPECT/CT)” value ([2]; i.p., after 30 minutes) was “almost disappeared from the abdominal cavity”. For the same compound, the “signals in the bladder (SPECT/CT)” value ([2]; i.p., after 30 minutes) was “many signals gathered in the bladder”, the “uptake in intestines and mesentery by autoradiography (ARG)” value ([2]; peritoneal dissemination model mouse dissected after 5 hours of imaging) was “uptake of radionuclides was observed in agreement with minute peritoneal dissemination” and the “signals in the abdomen (SPECT/CT)” value ([2]; peritoneal dissemination model mouse, i.p.) was “only scattered signals remained in the abdomen”. For the same compound, the “signals in the abdomen (SPECT/CT)” value ([2]; tumor-free mouse, i.p.) was “not observed”, the “radioactivity in tumor (SPECT/CT)” value [3] was “clearly remains” and the “metabolite formed on reaction with GGT” value [4] was “converted to 2-amino-5-iodobenzylalcohol”. For the same compound, the “radioactivity in tumor (SPECT/CT)” value [5] was “rapidly attenuated” and the uptake rate [6] was “suppressed to be low”.
